Entries after “also recorded” stand apart in the source; their conditions may differ.
How the values were obtained:
[1] = test system: healthy, drug-free male volunteers; assay: Safety and tolerability of noribogaine in healthy volunteers; type: in vivo, human
Protocol: Safety and tolerability of noribogaine were tested in the group of volunteers from Example 9. […] Safety evaluations included clinical monitoring, recording of adverse events (AEs), safety laboratory tests, vital signs, ECG telemetry from −2 h to 6 h after dosing, and 12-lead electrocardiograms (ECGs) up to 216 hours post-dosing.

[2] = Pharmacokinetics of noribogaine in healthy male volunteers (plasma and urine, LCMSMS); conditions: for CL/F / AUC0-216 / AUC0-∞ / Cmax / Tmax / T½: mean (SD); for AUC0-216 / AUC0-∞ / Cmax / Tmax / T½: plasma

Q: With CC[C@H]1CC2C[C@H]3c4[nH]c5ccc(O)cc5c4CCN(C2)C13 [noribogaine] as the molecule, how does the Adverse events reported ([1]; 3 mg dose group) read?
A: five adverse events were reported by two subjects

Q: And the Adverse events reported ([1]; 10 mg dose group)?
A: one adverse event was reported by single subjects

Q: And the “Single increase in QTcF (one subject)” value ([1]; 10 mg, 24 hours post-dosing)?
A: > 60 ms

Q: What about the Adverse events reported ([1]; 30 mg dose group) of the same molecule?
A: one adverse event was reported by single subjects

Q: And the “Oximetry, capnography, respiratory rate” value ([1]; 3-60 mg single oral dose)?
A: no changes in oximetry or capnography, or changes in respiratory rate

Q: And the “QTcF values >500 msec” value ([1]; 3-60 mg single oral dose)?
A: no QTcF values>500 msec at any time

Q: And the “Vital signs and safety laboratory tests” value ([1]; 3-60 mg single oral dose)?
A: no changes in vital signs or safety laboratory tests of note

Q: What about the “Adverse events, Mild” value ([1]; Dose 3 mg) of the same molecule?
A: Back pain; also recorded: Dizziness; also recorded: Epistaxis; also recorded: Headache

Q: And the “Adverse events, Moderate” value ([1]; Dose 3 mg)?
A: Headache

Q: And the “Adverse events, Mild” value ([1]; Dose 10 mg)?
A: Headache

Q: And the “Adverse events, Mild” value ([1]; Dose 30 mg)?
A: Headache

Q: And the CL/F ([2]; 3 mg (n = 6))?
A: 41.4 (7.0) L/h

Q: And the AUC0-216 ([2]; 3 mg (n = 6))?
A: 72.2 (13.2) ng · hr/ml

Q: What about the “AUC0-∞” value ([2]; 3 mg (n = 6)) of the same molecule?
A: 74.2 (13.1) ng · hr/ml

Q: What about the Cmax ([2]; 3 mg (n = 6)) of the same molecule?
A: 5.2 (1.4) ng/ml

Q: And the Tmax ([2]; 3 mg (n = 6))?
A: 1.9 (0.6) hr

Q: What about the T½ ([2]; 3 mg (n = 6)) of the same molecule?
A: 40.9 (8.7) hr

Q: And the CL/F ([2]; 10 mg (n = 6))?
A: 42.3 (12.0) L/h

Q: What about the AUC0-216 ([2]; 10 mg (n = 6)) of the same molecule?
A: 251.4 (78.5) ng · hr/ml

Q: What about the “AUC0-∞” value ([2]; 10 mg (n = 6)) of the same molecule?
A: 254.5 (78.9) ng · hr/ml

Q: What about the Cmax ([2]; 10 mg (n = 6)) of the same molecule?
A: 14.5 (2.1) ng/ml

Q: And the Tmax ([2]; 10 mg (n = 6))?
A: 2.9 (1.8) hr

Q: And the T½ ([2]; 10 mg (n = 6))?
A: 49.2 (11.5) hr

Q: What about the CL/F ([2]; 30 mg (n = 6)) of the same molecule?
A: 46.9 (16.4) L/h

Q: And the AUC0-216 ([2]; 30 mg (n = 6))?
A: 677.6 (221.1) ng · hr/ml

Q: What about the “AUC0-∞” value ([2]; 30 mg (n = 6)) of the same molecule?
A: 700.4 (223.3) ng · hr/ml

Q: What about the Cmax ([2]; 30 mg (n = 6)) of the same molecule?
A: 55.9 (14.8) ng/ml

Q: And the Tmax ([2]; 30 mg (n = 6))?
A: 1.8 (0.6) hr

Q: And the T½ ([2]; 30 mg (n = 6))?
A: 27.6 (7.0)) hr

Q: What about the CL/F ([2]; 60 mg (n = 6)) of the same molecule?
A: 34.0 (11.4) L/h

Q: And the AUC0-216 ([2]; 60 mg (n = 6))?
A: 1935.4 (725.4) ng · hr/ml

Q: And the “AUC0-∞” value ([2]; 60 mg (n = 6))?
A: 1962.2 (726.5) ng · hr/ml

Q: And the Cmax ([2]; 60 mg (n = 6))?
A: 116.0 (22.5) ng/ml

Q: What about the Tmax ([2]; 60 mg (n = 6)) of the same molecule?
A: 2.4 (0.6) hr

Q: And the T½ ([2]; 60 mg (n = 6))?
A: 29.1 (9.3) hr

Q: And the “Dose proportionality of Cmax and AUC” value ([2]; 3-60 mg)?
A: Both Cmax and AUC increased linearly with dose

Q: And the Mean half-life estimates ([2]; across dose groups)?
A: 28 to 50 h

Q: And the Volume of distribution ([2]; across dose groups)?
A: 1417 to 3086 L

Q: What about the “Time of peak concentrations after oral dosing” value ([2]; across dose groups 3-60 mg) of the same molecule?
A: 2 to 3 h

— US20150258107A1, “METHODS AND COMPOSITIONS FOR TREATING DEPRESSION” (DemeRx, Inc., priority 2014, published 2015)
